Earlier results in paper PMC5643362 (Acta Diabetologica, 2017).

Q: Which results are given for Exendin-4?
A: Resistance to dipeptidyl peptidase IV (dipeptidyl peptidase IV): resistant; Resistance to neural endopeptidase (neural endopeptidase): resistant
